Data published in patent US20120122860A1, “SOLID FORMS OF SULFONAMIDES AND AMINO ACIDS” (Plexxikon, Inc., priority 2009, published 2012).

Tests used:
B-Raf V600E = B-Raf V600E (Homo sapiens, UniProt P15056, V600E); assay: Kinase activity assay, B-Raf V600E; assay type: biochemical; settings: read-out: activity toward kinase B-Raf V600E, IC50
Kdr = Kdr (Homo sapiens, UniProt P35968); assay: Kinase activity assay, Kdr
A-Raf = target: T1, A-Raf (Homo sapiens, UniProt P10398); assay: Kinase activity assay, A-Raf
T1 sequence (P10398 1-606): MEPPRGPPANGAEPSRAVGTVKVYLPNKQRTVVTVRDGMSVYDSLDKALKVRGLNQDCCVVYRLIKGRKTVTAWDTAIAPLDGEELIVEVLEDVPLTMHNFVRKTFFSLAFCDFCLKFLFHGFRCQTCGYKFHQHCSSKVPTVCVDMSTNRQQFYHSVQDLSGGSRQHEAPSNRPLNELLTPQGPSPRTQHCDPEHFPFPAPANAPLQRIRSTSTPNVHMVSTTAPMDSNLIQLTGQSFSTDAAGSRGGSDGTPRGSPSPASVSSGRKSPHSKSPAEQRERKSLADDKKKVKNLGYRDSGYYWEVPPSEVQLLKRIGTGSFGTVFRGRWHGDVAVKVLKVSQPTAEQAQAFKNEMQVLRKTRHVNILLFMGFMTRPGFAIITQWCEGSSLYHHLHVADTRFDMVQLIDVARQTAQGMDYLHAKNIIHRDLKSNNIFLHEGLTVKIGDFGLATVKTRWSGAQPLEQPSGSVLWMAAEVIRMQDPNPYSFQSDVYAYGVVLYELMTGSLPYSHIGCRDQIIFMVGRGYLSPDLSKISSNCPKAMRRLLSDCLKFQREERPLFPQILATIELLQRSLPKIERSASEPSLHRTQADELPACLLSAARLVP

C-Raf = C-Raf (Homo sapiens, UniProt P04049); assay: Kinase activity assay, C-Raf
MAP4K4 = MAP4K4 (Homo sapiens, UniProt O95819); assay: Kinase activity assay, MAP4K4
B-Raf = B-Raf (Homo sapiens, UniProt P15056); assay: Kinase activity assay, B-Raf; assay type: biochemical; settings: read-out: activity toward kinase B-Raf, IC50
Fms = Fms (Homo sapiens, UniProt P07333); assay: Kinase activity assay, Fms
Kit = Kit (Homo sapiens, UniProt P10721); assay: Kinase activity assay, Kit
Src = Src (Homo sapiens, UniProt P12931); assay: Kinase activity assay, Src

Measured: IC50

Chain of MAP4K4 (O95819 whole entry): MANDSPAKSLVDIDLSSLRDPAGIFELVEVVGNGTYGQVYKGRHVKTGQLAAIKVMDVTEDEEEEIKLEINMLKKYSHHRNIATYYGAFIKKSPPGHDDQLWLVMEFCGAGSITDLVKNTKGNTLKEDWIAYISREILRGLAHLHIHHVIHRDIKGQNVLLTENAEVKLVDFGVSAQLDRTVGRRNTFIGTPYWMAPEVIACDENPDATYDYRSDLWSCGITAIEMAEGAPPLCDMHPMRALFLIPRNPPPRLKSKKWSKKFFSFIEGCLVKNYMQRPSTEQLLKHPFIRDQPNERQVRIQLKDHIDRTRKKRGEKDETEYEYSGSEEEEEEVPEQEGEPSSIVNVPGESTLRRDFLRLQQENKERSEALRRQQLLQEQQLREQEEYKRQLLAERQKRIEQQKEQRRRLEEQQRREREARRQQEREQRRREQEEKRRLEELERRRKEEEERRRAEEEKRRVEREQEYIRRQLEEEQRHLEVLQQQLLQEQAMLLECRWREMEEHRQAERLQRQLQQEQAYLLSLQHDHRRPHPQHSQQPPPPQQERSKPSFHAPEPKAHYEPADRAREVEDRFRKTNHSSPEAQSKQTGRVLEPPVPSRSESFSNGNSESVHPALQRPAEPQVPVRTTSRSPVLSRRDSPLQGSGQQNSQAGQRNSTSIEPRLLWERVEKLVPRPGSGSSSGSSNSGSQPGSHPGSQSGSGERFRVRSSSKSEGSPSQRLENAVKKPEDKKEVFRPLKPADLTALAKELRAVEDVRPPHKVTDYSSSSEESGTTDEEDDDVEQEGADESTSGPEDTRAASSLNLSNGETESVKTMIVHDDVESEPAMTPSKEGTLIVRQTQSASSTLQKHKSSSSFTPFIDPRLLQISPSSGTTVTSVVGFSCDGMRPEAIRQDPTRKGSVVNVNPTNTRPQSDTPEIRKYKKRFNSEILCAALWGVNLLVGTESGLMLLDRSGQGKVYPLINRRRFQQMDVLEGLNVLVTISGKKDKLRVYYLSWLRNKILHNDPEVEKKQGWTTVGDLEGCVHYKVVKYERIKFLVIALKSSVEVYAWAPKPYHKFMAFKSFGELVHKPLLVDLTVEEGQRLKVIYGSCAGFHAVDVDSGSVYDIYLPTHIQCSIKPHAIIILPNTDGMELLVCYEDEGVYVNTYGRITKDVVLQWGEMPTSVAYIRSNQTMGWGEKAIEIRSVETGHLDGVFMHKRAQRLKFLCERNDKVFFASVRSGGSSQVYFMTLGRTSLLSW
Chain of Kit (P10721 26-976): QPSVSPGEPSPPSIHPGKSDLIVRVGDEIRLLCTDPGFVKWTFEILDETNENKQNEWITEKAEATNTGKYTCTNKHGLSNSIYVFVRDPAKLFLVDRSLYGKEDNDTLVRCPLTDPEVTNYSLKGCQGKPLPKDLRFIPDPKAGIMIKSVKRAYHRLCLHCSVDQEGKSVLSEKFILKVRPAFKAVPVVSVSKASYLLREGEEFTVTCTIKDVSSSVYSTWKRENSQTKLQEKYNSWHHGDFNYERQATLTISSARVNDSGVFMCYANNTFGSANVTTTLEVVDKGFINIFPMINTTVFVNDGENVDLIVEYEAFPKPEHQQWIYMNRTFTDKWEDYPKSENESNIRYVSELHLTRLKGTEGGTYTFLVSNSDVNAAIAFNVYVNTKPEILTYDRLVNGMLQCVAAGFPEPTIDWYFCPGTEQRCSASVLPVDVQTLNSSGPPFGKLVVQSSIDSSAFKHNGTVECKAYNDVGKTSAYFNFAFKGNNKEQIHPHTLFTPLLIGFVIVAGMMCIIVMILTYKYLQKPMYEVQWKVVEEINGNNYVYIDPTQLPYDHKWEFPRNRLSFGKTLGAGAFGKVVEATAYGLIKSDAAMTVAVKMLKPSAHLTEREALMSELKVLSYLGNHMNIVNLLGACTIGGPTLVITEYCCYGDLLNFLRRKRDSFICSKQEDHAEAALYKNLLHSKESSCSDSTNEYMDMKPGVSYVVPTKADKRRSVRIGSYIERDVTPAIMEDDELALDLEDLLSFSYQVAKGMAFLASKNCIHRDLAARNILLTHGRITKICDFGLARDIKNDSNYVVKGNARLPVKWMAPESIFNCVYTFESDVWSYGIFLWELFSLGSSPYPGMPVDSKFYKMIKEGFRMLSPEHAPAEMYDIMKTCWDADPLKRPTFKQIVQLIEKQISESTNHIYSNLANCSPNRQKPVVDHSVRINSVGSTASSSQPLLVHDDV
Chain of B-Raf (P15056 whole entry): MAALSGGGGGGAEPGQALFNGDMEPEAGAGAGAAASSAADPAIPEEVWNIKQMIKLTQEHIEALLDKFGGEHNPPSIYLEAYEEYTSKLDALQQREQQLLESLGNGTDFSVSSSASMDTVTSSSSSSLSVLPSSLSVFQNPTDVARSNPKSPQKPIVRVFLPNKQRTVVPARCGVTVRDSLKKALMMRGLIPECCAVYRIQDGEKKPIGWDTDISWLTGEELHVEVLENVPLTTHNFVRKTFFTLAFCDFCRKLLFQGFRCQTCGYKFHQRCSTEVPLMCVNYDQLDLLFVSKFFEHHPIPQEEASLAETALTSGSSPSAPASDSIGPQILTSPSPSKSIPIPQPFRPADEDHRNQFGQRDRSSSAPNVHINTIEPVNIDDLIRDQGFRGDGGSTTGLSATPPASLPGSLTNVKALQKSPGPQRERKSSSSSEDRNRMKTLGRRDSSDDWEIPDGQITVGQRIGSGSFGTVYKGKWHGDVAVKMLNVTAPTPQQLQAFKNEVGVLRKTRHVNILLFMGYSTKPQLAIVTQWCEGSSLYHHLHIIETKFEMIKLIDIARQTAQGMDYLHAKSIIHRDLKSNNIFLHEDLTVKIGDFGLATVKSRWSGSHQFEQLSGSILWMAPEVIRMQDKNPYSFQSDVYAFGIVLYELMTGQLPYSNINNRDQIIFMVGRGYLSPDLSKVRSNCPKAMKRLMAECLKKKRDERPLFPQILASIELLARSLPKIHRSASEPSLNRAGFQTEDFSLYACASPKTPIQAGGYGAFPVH
Chain of B-Raf V600E (P15056 whole entry V600E): as the sequence (P15056 whole entry) above, with V600E counted along it
Chain of C-Raf (P04049 whole entry): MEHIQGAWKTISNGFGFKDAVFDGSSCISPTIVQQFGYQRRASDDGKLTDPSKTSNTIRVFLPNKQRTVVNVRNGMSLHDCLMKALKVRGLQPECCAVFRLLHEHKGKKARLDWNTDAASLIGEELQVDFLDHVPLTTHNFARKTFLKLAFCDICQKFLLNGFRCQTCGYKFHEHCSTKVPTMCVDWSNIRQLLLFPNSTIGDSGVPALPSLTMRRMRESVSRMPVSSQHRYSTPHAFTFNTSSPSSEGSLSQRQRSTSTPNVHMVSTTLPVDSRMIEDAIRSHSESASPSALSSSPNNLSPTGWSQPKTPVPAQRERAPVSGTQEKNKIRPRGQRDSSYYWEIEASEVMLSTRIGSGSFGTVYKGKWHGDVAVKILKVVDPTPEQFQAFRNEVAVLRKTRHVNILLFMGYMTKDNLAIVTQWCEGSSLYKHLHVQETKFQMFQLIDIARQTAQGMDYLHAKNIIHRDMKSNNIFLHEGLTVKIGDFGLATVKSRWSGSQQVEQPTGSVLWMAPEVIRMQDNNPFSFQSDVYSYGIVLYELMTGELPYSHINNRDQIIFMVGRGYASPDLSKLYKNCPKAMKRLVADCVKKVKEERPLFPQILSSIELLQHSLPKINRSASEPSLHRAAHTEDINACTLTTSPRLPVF
Chain of Fms (P07333 20-972): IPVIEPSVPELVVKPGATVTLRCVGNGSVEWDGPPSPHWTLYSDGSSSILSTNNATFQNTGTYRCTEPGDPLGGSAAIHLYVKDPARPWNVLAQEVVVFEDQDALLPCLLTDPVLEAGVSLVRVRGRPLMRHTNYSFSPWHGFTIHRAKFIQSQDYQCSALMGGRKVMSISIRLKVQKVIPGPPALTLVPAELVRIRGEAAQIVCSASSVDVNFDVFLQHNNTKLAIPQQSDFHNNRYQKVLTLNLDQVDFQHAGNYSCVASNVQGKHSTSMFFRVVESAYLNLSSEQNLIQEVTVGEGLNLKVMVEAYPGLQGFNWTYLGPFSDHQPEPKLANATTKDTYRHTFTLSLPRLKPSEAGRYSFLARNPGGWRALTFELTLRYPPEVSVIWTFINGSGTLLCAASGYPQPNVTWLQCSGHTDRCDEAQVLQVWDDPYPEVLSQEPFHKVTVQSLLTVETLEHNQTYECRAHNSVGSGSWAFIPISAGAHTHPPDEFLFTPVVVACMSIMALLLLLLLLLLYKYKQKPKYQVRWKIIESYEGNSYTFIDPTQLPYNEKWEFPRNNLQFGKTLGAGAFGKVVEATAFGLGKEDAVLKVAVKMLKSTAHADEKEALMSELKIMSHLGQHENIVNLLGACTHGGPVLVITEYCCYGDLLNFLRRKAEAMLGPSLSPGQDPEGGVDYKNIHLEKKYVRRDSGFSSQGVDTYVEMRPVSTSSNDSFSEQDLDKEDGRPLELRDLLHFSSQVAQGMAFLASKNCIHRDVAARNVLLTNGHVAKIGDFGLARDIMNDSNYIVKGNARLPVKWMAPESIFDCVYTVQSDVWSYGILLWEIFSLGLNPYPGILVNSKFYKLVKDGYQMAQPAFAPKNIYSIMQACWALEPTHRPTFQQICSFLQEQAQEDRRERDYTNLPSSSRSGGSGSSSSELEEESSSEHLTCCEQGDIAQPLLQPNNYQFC

N#Cc1cnc2[nH]cc(C(=O)c3c(F)ccc(NS(=O)(=O)c4ncn[nH]4)c3F)c2c1 [P-2064, 2H-[1,2,4]Triazole-3-sulfonic acid [3-(5-cyano-1H-pyrrolo[2,3-b]pyridine-3-carbonyl)-2,4-difluoro-phenyl]-amide]
≤ 10 µM: B-Raf V600E | Kdr | A-Raf | C-Raf | MAP4K4

O=C(c1c(F)ccc(NS(=O)(=O)c2ncn[nH]2)c1F)c1c[nH]c2nccc(Cl)c12 [P-2066, 2H-[1,2,4]Triazole-3-sulfonic acid [3-(4-chloro-1H-pyrrolo[2,3-b]pyridine-3-carbonyl)-2,4-difluoro-phenyl]-amide]
not listed: Fms | Kit | Src
≤ 10 µM: all other assays above

O=C(c1cc(NS(=O)(=O)c2ccc(Cl)cc2)ccc1F)c1c[nH]c2ncccc12 [P-2113, 4-Chloro-N-[4-fluoro-3-(1H-pyrrolo[2,3-b]pyridine-3-carbonyl)-phenyl]-benzenesulfonamide]
≤ 10 µM: B-Raf | Fms | Kdr | Kit | A-Raf

O=C(c1cc(NS(=O)(=O)c2cccc(C(F)(F)F)c2)ccc1F)c1c[nH]c2ncccc12 [P-2115, N-[4-Fluoro-3-(1H-pyrrolo[2,3-b]pyridine-3-carbonyl)-phenyl]-3-trifluoromethyl-benzenesulfonamide]
≤ 10 µM: Fms | Kdr | Kit | A-Raf

O=C(c1cc(NS(=O)(=O)c2ccc(OC(F)(F)F)cc2)ccc1F)c1c[nH]c2ncccc12 [P-2116, N-[4-Fluoro-3-(1H-pyrrolo[2,3-b]pyridine-3-carbonyl)-phenyl]-4-trifluoromethoxy-benzenesulfonamide]
≤ 10 µM: B-Raf | Fms | Kit | A-Raf | C-Raf

O=C(c1cc(NS(=O)(=O)c2cccc(OC(F)(F)F)c2)ccc1F)c1c[nH]c2ncccc12 [P-2117, N-[4-Fluoro-3-(1H-pyrrolo[2,3-b]pyridine-3-carbonyl)-phenyl]-3-trifluoromethoxy-benzenesulfonamide]
not listed: B-Raf V600E | MAP4K4 | Src
≤ 10 µM: all other assays above

CCCS(=O)(=O)Nc1ccc(F)c(C(=O)c2c[nH]c3ncc(C(F)(F)F)cc23)c1F [P-2182, Propane-1-sulfonic acid [2,4-difluoro-3-(5-trifluoromethyl-1H-pyrrolo[2,3-b]pyridine-3-carbonyl)-phenyl]-amide]
not listed: Fms | Src
≤ 10 µM: all other assays above

CCCS(=O)(=O)Nc1ccc(F)c(C(=O)c2c[nH]c3ncc(CN4CCOCC4)cc23)c1F [P-2244, Propane-1-sulfonic acid [2,4-difluoro-3-(5-morpholin-4-ylmethyl-1H-pyrrolo[2,3-b]pyridine-3-carbonyl)-phenyl]-amide]
≤ 10 µM: B-Raf | B-Raf V600E | A-Raf | C-Raf | MAP4K4

COc1cnc2[nH]cc(C(=O)c3c(F)ccc(NS(=O)(=O)C(C)C)c3F)c2c1 [P-2273, Propane-2-sulfonic acid [2,4-difluoro-3-(5-methoxy-1H-pyrrolo[2,3-b]pyridine-3-carbonyl)-phenyl]-amide]
not listed: MAP4K4
≤ 10 µM: all other assays above

COc1cnc2[nH]cc(C(=O)c3c(F)ccc(NS(C)(=O)=O)c3F)c2c1 [P-2288, N-[2,4-Difluoro-3-(5-methoxy-1H-pyrrolo[2,3-b]pyridine-3-carbonyl)-phenyl]-methanesulfonamide]
not listed: B-Raf | Fms | Src
≤ 10 µM: all other assays above

Cc1cnc2[nH]cc(C(=O)c3c(F)ccc(NS(C)(=O)=O)c3F)c2c1 [P-2289, N-[2,4-Difluoro-3-(5-methyl-1H-pyrrolo[2,3-b]pyridine-3-carbonyl)-phenyl]-methanesulfonamide]
not listed: B-Raf | Fms | Src
≤ 10 µM: all other assays above

CS(=O)(=O)Nc1ccc(F)c(C(=O)c2c[nH]c3ncc(Cl)cc23)c1F [P-2291, N-[3-(5-Chloro-1H-pyrrolo[2,3-b]pyridine-3-carbonyl)-2,4-difluoro-phenyl]-methanesulfonamide]
not listed: B-Raf | Fms | Src
≤ 10 µM: all other assays above

CC(C)CS(=O)(=O)Nc1ccc(F)c(C(=O)c2c[nH]c3ncc(-c4ccc(Cl)cc4)cc23)c1F [P-2297, 2-Methyl-propane-1-sulfonic acid {3-[5-(4-chloro-phenyl)-1H-pyrrolo[2,3-b]pyridine-3-carbonyl]-2,4-difluoro-phenyl}-amide]
≤ 10 µM: Fms | Kit | A-Raf | C-Raf

CC(C)CS(=O)(=O)Nc1ccc(F)c(C(=O)c2c[nH]c3ncc(Cl)cc23)c1F [P-2304, 2-Methyl-propane-1-sulfonic acid [3-(5-chloro-1H-pyrrolo[2,3-b]pyridine-3-carbonyl)-2,4-difluoro-phenyl]-amide]
not listed: MAP4K4
≤ 10 µM: all other assays above

O=C(c1c(F)ccc(NS(=O)(=O)C(F)(F)F)c1F)c1c[nH]c2ncc(-c3ccc(Cl)cc3)cc12 [P-2343, N-{3-[5-(4-Chloro-phenyl)-1H-pyrrolo[2,3-b]pyridine-3-carbonyl]-2,4-difluoro-phenyl}-C,C,C-trifluoro-methanesulfonamide]
not listed: MAP4K4
≤ 10 µM: all other assays above

Cc1cnc2[nH]cc(C(=O)c3c(F)ccc(NS(=O)(=O)C4CCC4)c3F)c2c1 [P-2362, Cyclobutanesulfonic acid [2,4-difluoro-3-(5-methyl-1H-pyrrolo[2,3-b]pyridine-3-carbonyl)-phenyl]-amide]
≤ 10 µM: B-Raf V600E | Kdr | A-Raf | C-Raf | MAP4K4

N#Cc1cnc2[nH]cc(C(=O)c3c(F)ccc(NS(=O)(=O)C4CCCCC4)c3F)c2c1 [P-2366, Cyclohexanesulfonic acid [3-(5-cyano-1H-pyrrolo[2,3-b]pyridine-3-carbonyl)-2,4-difluoro-phenyl]-amide]
not listed: Kdr | Fms | Src
≤ 10 µM: all other assays above

COc1cnc2[nH]cc(C(=O)c3c(F)ccc(NS(=O)(=O)N4CCCC4)c3F)c2c1 [P-2374, Pyrrolidine-1-sulfonic acid [2,4-difluoro-3-(5-methoxy-1H-pyrrolo[2,3-b]pyridine-3-carbonyl)-phenyl]-amide]
not listed: MAP4K4 | Fms
≤ 10 µM: all other assays above

O=C(c1c(F)ccc(NS(=O)(=O)N2CCOCC2)c1F)c1c[nH]c2ncc(Cl)cc12 [P-2390, Morpholine-4-sulfonic acid [3-(5-chloro-1H-pyrrolo[2,3-b]pyridine-3-carbonyl)-2,4-difluoro-phenyl]-amide]
not listed: C-Raf | MAP4K4 | B-Raf
≤ 10 µM: all other assays above

O=C(c1c(F)ccc(NS(=O)(=O)N2CCCC2)c1F)c1c[nH]c2nccc(Cl)c12 [P-2398, Pyrrolidine-1-sulfonic acid [3-(4-chloro-1H-pyrrolo[2,3-b]pyridine-3-carbonyl)-2,4-difluoro-phenyl]-amide]
not listed: MAP4K4 | Fms
≤ 10 µM: all other assays above

CCCS(=O)(=O)Nc1ccc(F)c(C(=O)c2c[nH]c3ncccc23)c1 [P-2437, Propane-1-sulfonic acid [4-fluoro-3-(1H-pyrrolo[2,3-b]pyridine-3-carbonyl)-phenyl]-amide]
≤ 10 µM: B-Raf V600E | Fms | Kdr | A-Raf
